Among the data in patent US20200216416A1, “QUINOLINE COMPOUNDS AS INHIBITORS OF TAM AND MET KINASES” (Array BioPharma Inc., priority 2019, published 2020) are IC50, efflux ratio and Papp values, retold here.

pIC50: −log10 of the molar value. Read-outs that look alike come from different tables or passages of the source.

For one data set, the target named is T1, human MET kinase Y1230C (Homo sapiens, UniProt P08581, Y1230C).
T1 construct: GST-tagged recombinant human MET kinase domain; purchased Signal Chem
T1 sequence (P08581 1078-1345 Y1230C): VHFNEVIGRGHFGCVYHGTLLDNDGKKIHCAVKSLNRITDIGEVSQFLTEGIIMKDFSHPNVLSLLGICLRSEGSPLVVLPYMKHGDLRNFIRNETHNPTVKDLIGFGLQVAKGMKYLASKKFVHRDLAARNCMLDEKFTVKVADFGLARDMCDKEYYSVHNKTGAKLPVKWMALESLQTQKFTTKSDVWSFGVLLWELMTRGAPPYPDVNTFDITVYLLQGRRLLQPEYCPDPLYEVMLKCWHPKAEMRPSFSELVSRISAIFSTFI
In words: c-Met Enzyme Assay, Y1230C mutant. It counts as binding. Particulars: averaged IC50; Y1230C 2 nM; 60-minute incubation at 22° C.; read-out: Y1230 C IC50. The protocol:
(§1) The affinity of compound binding to wild type and mutant human MET kinases was measured using Invitrogen's LanthaScreen™ Eu Kinase Binding technology. Briefly, GST-tagged recombinant human MET kinase domain from Signal Chem (see Table 8 below for concentration in assay) was incubated with 50 nM Alexa-Fluor® Tracer 236 (Invitrogen Cat No. PR9078A) and 2 nM Europium-anti-GST (Invitrogen Cat. No. A15116) along with test compound in a buffer consisting of 25 mM HEPES, pH 7.4, 10 mM MgCl2, 0.01% Triton X-100, 1mM DTT, and 2% DMSO. Compounds were typically prepared in a three-fold serial dilution in DMSO and added to the assay to give the appropriate final concentration. After a 60-minute incubation at 22° C., the reaction was measured using a PerkinElmer EnVision multimode plate reader via TR-FRET dual wavelength detection, and the percent of control (POC) calculated using a ratiometric emission factor. […] The POC values were fit to a 4 parameter logistic curve and the IC50 value is point where the curve crosses 50 POC.

The next data set deals with T2, human MET kinase Y1230H (Homo sapiens, UniProt P08581, Y1230H).
T2 construct: GST-tagged recombinant human MET kinase domain; purchased Signal Chem
T2 sequence (P08581 1078-1345 Y1230H): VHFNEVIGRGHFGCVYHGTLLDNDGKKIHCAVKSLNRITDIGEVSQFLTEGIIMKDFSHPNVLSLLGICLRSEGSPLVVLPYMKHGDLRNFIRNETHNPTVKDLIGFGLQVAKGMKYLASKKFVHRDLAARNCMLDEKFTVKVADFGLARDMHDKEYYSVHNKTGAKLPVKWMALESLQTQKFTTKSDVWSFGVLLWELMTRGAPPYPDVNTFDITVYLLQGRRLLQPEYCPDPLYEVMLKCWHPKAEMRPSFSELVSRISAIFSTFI
Put plainly: c-Met Enzyme Assay, Y1230H mutant. It counts as binding. Particulars: averaged IC50; Y1230H 5 nM; 60-minute incubation at 22° C.; read-out: Y1230 H IC50. The protocol: as §1

For another data set, the target named is T3, human MET kinase F1200I (Homo sapiens, UniProt P08581, F1200I).
T3 construct: GST-tagged recombinant human MET kinase domain; purchased Signal Chem
T3 sequence (P08581 1078-1345 F1200I limits assumed): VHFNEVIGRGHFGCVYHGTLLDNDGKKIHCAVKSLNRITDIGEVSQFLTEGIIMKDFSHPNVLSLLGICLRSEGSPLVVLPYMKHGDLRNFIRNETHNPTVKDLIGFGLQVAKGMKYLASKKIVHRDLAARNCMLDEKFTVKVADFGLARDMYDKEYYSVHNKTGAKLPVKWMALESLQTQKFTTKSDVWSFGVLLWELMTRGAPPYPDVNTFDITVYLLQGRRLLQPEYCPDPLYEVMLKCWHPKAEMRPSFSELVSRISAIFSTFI
Put plainly: c-Met Enzyme Assay, F1200I mutant. It counts as binding. The settings on record: averaged IC50; F1200I 2 nM; 60-minute incubation at 22° C. The method, then:
as §1

The next data set concerns the target T4, human MET kinase Y1230S (Homo sapiens, UniProt P08581, Y1230S).
T4 construct: GST-tagged recombinant human MET kinase domain; purchased Signal Chem
In words: c-Met Enzyme Assay, Y1230S mutant. The format is binding. Particulars: averaged IC50; Y1230S 8 nM; 60-minute incubation at 22° C.; read-out: Y1230 S IC50. The method, then: as §1

The next data set addresses T5, MDR1 (P-gp) (Homo sapiens, UniProt P08183).
T5 construct: expressed in transfected cells; host or cells: LLC-PK1
In words: MDR1 LLC-PK1 permeability assay. The settings on record: pig, MDR1 transfected LLC-PK1 cells; for Papp at 2 h, 1 μM: permeability coefficient (Papp). It counts as in vitro ADME. The method, then:
MDR1 transfected LLC-PK1 cells were cultured and plated according to manufacturer's recommendations with the exception that the passage media contained only 2% fetal bovine serum to extend passage time out to seven days.
Both positive and negative controls were used to assess functionality of P-gp efflux in the assay. Stock solutions for assay controls and the test article were prepared in DMSO for final test concentrations of 10 and 1 μM, respectively. Final organic concentration in the assay was 1%. All dosing solutions contained 10 μM lucifer yellow to monitor LLC-PK1 cell monolayer integrity.
For the apical to basolateral determination (A to B), 75 μL of the test article in transport buffer were added to the apical side of the individual transwells and 250 μL of basolateral media, without compound or lucifer yellow, were added to each well. For the basolateral to apical determination (B to A), 250 μL of test article in transport buffer were added to each well and 75 μL transport buffer, without compound or lucifer yellow, were added to each transwell. All tests were performed in triplicate, and each compound was tested for both apical to basolateral and basolateral to apical transport. The plates were incubated for 2 hours on a Lab-Line Instruments Titer Orbital Shaker (VWR, West Chester, Pa.) at 50 rpm and 37° C. with 5% CO2. All culture plates were removed from the incubator and 50 μL of media were removed from the apical and basolateral portion of each well and added to 150 μL of 1 μM labetalol in 2:1 acetonitrile (acetonitrile): H2O, v/v.
The plates were read using a Molecular Devices (Sunnyvale, Calif.) Gemini Fluorometer to evaluate the lucifer yellow concentrations at excitation/emission wavelengths of 425/535 nm. These values were accepted when found to be below 2% for apical to basolateral and 5% basolateral to apical flux across the MDR1-transfected LLC-PK1-transfected cell monolayers. The plates were sealed and the contents of each well analyzed by LC-MS/MS. The compound concentrations were determined from the ratio of the peak areas of the compound to the internal standard (labetalol) in comparison to the dosing solution.
The LC-MS/MS system was comprised of an HTS-PAL autosampler (Leap Technologies, Carrboro, N.C.), an HP1200 HPLC (Agilent, Palo Alto, Calif.), and a MDS Sciex 4000 Q Trap system (Applied Biosystems, Foster City, Calif.). […] The total run time, including re-equilibration, for a single injection was 1.2 minutes. Mass spectrometric detection of the analytes was accomplished using the ion spray positive mode. Analyte responses were measured by multiple reaction monitoring (MRM) of transitions unique to each compound (the protonated precursor ion and selected product ions for each test article and m/z 329 to m/z 162 for labetalol, the internal standard).
The permeability coefficient (Papp) is calculated from the following equation: […]
where Cd, V, t and C0 are the detected concentration (μM), the volume on the dosing side (mL), the incubation time (s) and the initial dosing concentration (μM), respectively. The calculations for Papp were made for each replicate and then averaged. In this assay, a compound is defined has having high permeability if the permeability is greater than 8×10^−6 cm/sec, a compound is defined has having medium permeability if the permeability is from 2×10^−6 cm/sec to 8×10^−6 cm/sec, and a compound is defined has having low permeability if the permeability is less than 2×10^−6 cm/sec.
An efflux ratio was calculated from the mean apical to basolateral (A-B) Papp data and basolateral to apical (B-A) Papp data:
Efflux ratio=Papp(B−A)/Papp(A−B)

For data set [1], the target named is T6, MET (wt) GST-tagged recombinant human MET kinase domain (Homo sapiens, UniProt P08581).
T6 construct: GST-tagged recombinant human MET kinase domain; purchased Signal Chem
T6 sequence (P08581 1078-1345 limits assumed): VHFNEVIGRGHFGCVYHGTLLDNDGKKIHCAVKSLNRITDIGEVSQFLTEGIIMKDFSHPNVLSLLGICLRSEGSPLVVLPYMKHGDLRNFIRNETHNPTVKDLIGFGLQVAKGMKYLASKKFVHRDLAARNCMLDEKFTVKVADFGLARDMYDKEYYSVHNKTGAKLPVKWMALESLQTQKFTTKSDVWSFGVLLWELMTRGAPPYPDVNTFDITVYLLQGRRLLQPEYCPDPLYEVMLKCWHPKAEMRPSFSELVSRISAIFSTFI
In words: c-Met Enzyme Assay, wild type (LanthaScreen Eu Kinase Binding). The settings on record: averaged IC50; MET (wt) 10 nM; 60-minute incubation at 22° C.; read-out: SigChem WT IC50. The protocol: as §1
For orientation: TR-FRET usually uses a lanthanide donor and a delayed reading to cut background.

For a further data set, the target named is T7, human MET kinase L1195V (Homo sapiens, UniProt P08581, L1195V).
T7 construct: GST-tagged recombinant human MET kinase domain; purchased Signal Chem
T7 sequence (P08581 1078-1345 L1195V limits assumed): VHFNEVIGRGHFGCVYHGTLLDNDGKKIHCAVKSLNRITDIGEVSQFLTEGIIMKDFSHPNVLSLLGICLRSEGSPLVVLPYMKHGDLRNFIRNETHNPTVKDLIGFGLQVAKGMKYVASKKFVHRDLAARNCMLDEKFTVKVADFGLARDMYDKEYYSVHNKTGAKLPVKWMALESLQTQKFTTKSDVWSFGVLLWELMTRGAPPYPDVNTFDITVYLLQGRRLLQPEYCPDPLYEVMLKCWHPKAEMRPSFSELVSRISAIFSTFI
Put plainly: c-Met Enzyme Assay, L1195V mutant. It counts as binding. The settings on record: averaged IC50; L1195V 10 nM; 60-minute incubation at 22° C. The protocol: as §1

The mark [2] stands for this setting: LLC-PK1, Papp(B−A)/Papp(A−B), test article 1 μM, 2 hours, 37° C., read-out: Efflux ratio.
Where [3] appears, read: LLC-PK1, efflux ratio = Papp(B-A)/Papp(A-B), read-out: MDR1 Pe Ratio.

T4 sequence (P08581 1078-1345 Y1230S): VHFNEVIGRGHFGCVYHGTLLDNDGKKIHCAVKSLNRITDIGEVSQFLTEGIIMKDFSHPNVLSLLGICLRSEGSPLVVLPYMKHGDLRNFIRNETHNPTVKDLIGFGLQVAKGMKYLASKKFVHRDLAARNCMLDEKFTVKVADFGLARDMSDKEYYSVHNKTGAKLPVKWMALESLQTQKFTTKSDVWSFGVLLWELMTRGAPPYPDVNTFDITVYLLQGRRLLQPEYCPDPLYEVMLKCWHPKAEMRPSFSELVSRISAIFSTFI
T5 sequence (P08183 whole entry): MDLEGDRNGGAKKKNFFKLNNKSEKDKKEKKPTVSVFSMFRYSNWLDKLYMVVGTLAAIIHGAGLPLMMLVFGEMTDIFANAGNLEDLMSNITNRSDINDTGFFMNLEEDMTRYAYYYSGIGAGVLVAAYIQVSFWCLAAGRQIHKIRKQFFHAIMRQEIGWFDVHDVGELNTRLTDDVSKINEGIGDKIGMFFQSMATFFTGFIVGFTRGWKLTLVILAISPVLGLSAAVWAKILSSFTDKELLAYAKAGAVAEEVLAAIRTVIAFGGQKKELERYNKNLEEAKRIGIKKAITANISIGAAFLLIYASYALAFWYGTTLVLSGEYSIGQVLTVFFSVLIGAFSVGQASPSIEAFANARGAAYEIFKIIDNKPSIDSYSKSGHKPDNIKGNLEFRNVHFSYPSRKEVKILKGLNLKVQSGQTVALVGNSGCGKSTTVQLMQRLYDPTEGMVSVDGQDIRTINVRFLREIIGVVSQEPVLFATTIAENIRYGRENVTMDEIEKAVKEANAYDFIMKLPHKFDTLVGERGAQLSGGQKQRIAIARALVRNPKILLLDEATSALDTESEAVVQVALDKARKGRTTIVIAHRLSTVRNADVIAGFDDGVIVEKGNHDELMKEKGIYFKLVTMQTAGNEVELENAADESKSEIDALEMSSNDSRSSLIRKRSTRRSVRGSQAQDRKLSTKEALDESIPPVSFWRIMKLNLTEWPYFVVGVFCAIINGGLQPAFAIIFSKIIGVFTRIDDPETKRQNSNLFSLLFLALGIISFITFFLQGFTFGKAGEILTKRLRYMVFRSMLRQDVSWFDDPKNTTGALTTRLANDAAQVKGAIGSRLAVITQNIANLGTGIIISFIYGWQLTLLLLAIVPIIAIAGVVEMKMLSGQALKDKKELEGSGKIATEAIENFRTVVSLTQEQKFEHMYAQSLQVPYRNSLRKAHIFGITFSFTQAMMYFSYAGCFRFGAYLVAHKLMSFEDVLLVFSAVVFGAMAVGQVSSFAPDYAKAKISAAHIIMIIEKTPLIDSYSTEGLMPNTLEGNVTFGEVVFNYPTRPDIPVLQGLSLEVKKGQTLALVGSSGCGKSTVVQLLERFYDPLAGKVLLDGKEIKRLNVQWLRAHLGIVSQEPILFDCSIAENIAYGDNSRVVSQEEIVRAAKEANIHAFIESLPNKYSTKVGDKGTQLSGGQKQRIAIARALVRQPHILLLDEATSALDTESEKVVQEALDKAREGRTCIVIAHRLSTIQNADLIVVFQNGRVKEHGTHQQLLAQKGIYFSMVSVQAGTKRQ

As for `CCC(CC)n1cc(C(=O)Nc2ccc(Oc3ccnc4cc(OC)c(OC)cc34)cn2)c(=O)c(-c2ccc(F)cc2F)c1` [Example 16, 5-(2,4-difluorophenyl)-N-(5-((6,7-dimethoxyquinolin-4yl)oxy)pyridin-2-yl)-4-oxo-1-(pentan-3-yl)-1,4-dihydropyridine-3-carboxamide], the pIC50 at human MET kinase Y1230C was 8.21; at human MET kinase Y1230H, 8.11; against human MET kinase F1200I, 8.17; at human MET kinase Y1230S, 8.22; in data set [1], 8.21; against human MET kinase L1195V, 7.46. Besides, the efflux ratio at 2 h, 1 μM at MDR1 (P-gp) (setting [2]) worked out at 3.5; on MDR1 (P-gp) (setting [3]), 2. Further, the Papp at 2 h, 1 μM at MDR1 (P-gp) turned out to be 4 ×10⁻⁶ cm/s.

In the case of `COc1cc2nccc(Oc3ccc(NC(=O)c4cn(C)c(C(C)C)c(-c5ccc(F)cc5)c4=O)nc3)c2cc1OC` [Example 45, N-(5-((6,7-dimethoxyquinolin-4-yl)oxy)pyridin-2-yl)-5-(4-fluorophenyl)-6-isopropyl-1-methyl-4-oxo-1,4-dihydropyridine-3-carboxamide], the negative logarithm of the IC50 (pIC50) is 8.36 on human MET kinase Y1230C; 8.00 at human MET kinase Y1230H; 8.08 at human MET kinase F1200I; 8.21 on human MET kinase Y1230S; 8.36 in data set [1]; 7.38 on human MET kinase L1195V. Besides, the efflux ratio at 2 h, 1 μM at MDR1 (P-gp) (setting [3]) is 16. The Papp at 2 h, 1 μM on MDR1 (P-gp) stood at 5 ×10⁻⁶ cm/s.

As to `COc1cc2nccc(Oc3ccc(NC(=O)c4cn(C)cc(-c5ccc(F)cc5)c4=O)nc3)c2cc1OC` [Example 2], the pIC50 is 8.02 on human MET kinase Y1230C; 7.74 at human MET kinase Y1230H; 8.17 on human MET kinase F1200I; 8.01 on human MET kinase Y1230S; 8.19 in data set [1]; 7.06 on human MET kinase L1195V. In addition, the efflux ratio at 2 h, 1 μM at MDR1 (P-gp) (setting [3]) was 8.3. The compound also displayed a Papp at 2 h, 1 μM at MDR1 (P-gp) of 15 ×10⁻⁶ cm/s.

Regarding `COc1cc2nccc(Oc3ccc(NC(=O)c4cn(CC(C)(C)O)cc(-c5ccc(F)cc5)c4=O)nc3)c2cc1OC` [Example 9, N-(5-((6,7-dimethoxyquinolin-4-yl)oxy)pyridin-2-yl)-5-(4-fluorophenyl)-1-(2-hydroxy-2-methylpropyl)-4-oxo-1,4-dihydropyridine-3-carboxamide], the pIC50 was 8.21 at human MET kinase Y1230C; 7.88 at human MET kinase Y1230H; 8.19 at human MET kinase F1200I; 8.04 at human MET kinase Y1230S; 8.54 in data set [1]; 7.32 at human MET kinase L1195V. For the same compound, the efflux ratio at 2 h, 1 μM at MDR1 (P-gp) (setting [3]) was found to be 26. At MDR1 (P-gp), this compound registered a Papp at 2 h, 1 μM of 14 ×10⁻⁶ cm/s.

For the compound `CCOc1ccc2c(Oc3ccc(NC(=O)c4cn(C(C)C)cc(-c5ccc(F)cc5)c4=O)nc3)ccnc2c1` [Example 52, N-(5-((7-ethoxyquinolin-4-yl)oxy)pyridin-2-yl)-5-(4-fluorophenyl)-1-isopropyl-4-oxo-1,4-dihydropyridine-3-carboxamide], the pIC50 on human MET kinase Y1230C is 7.88; at human MET kinase Y1230H it was 7.49; against human MET kinase F1200I, 7.70; on human MET kinase Y1230S it was 7.84; in data set [1] it was 7.83; on human MET kinase L1195V, 7.13. Also, the efflux ratio at 2 h, 1 μM at MDR1 (P-gp) (setting [2]) amounted to 3.5; on MDR1 (P-gp) (setting [3]), 1.8. The compound further showed a Papp at 2 h, 1 μM on MDR1 (P-gp) of 2 ×10⁻⁶ cm/s.

Regarding `COc1cc2ncc(C#N)c(Oc3ccc(NC(=O)c4cn(C(C)C)cc(-c5ccc(F)cc5)c4=O)nc3)c2cc1OC` [Example 57, N-(5-((3-cyano-6,7-dimethoxyquinolin-4-yl)oxy)pyridin-2-yl)-5-(4-fluorophenyl)-1-isopropyl-4-oxo-1,4-dihydropyridine-3-carboxamide], the negative logarithm of the IC50 (pIC50) at human MET kinase Y1230C is 6.28; on human MET kinase Y1230H, 6.10; on human MET kinase F1200I, 6.46; at human MET kinase Y1230S, 6.29; in data set [1], 6.53. Further, the efflux ratio at 2 h, 1 μM on MDR1 (P-gp) (setting [2]) is 3.5; on MDR1 (P-gp) (setting [3]), 2.5. The compound further yielded a Papp at 2 h, 1 μM at MDR1 (P-gp) of 15 ×10⁻⁶ cm/s.

Take `COc1cc2nccc(Oc3ccc(NC(=O)c4cn(C(C)C)c(C(C)C)c(-c5ccc(F)cc5)c4=O)nc3)c2cc1OC` [Example 38, N-(5-((6,7-dimethoxyquinolin-4yl)oxy)pyridin-2-yl)-5-(4-fluorophenyl)-1,6-diisopropyl-4-oxo-1,4-dihydropyridine-3-carboxamide]: on MDR1 (P-gp), the apparent permeability coefficient (Papp) at 2 h, 1 μM is 25 ×10⁻⁶ cm/s.

Take `COc1cc2nccc(Oc3ccc(NC(=O)c4c[nH]cc(-c5ccc(F)cc5)c4=O)nc3)c2cc1OC` [Example 26, N-(5-((6,7-dimethoxyquinolin-4yl)oxy)pyridin-2-yl)-5-(4-fluorophenyl)-4-oxo-1,4-dihydropyridine-3-carboxamide]: the pIC50 is 8.19 at human MET kinase Y1230C; 7.77 at human MET kinase Y1230H; 8.19 against human MET kinase F1200I; 8.04 on human MET kinase Y1230S; 8.22 in data set [1]. The efflux ratio at 2 h, 1 μM on MDR1 (P-gp) (setting [3]) stood at 44. The Papp at 2 h, 1 μM at MDR1 (P-gp) was 3 ×10⁻⁶ cm/s.

On to `COc1cc2nc(C)cc(Oc3ccc(NC(=O)c4cn(C(C)C)cc(-c5ccc(F)cc5)c4=O)nc3)c2cc1OC` [Example 53, N-(5-((6,7-dimethoxy-2-methylquinolin-4-yl)oxy)pyridin-2-yl)-5-(4-fluorophenyl)-1-isopropyl-4-oxo-1,4-dihydropyridine-3-carboxamide], for which the pIC50 at human MET kinase Y1230C is 5.48; on human MET kinase Y1230H it was 5.78; against human MET kinase F1200I, 5.43; at human MET kinase Y1230S it was 5.43; in data set [1], 5.51. Also, on MDR1 (P-gp) (setting [3]), the efflux ratio at 2 h, 1 μM turned out to be 3.4. This compound also yielded a Papp at 2 h, 1 μM on MDR1 (P-gp) of 5 ×10⁻⁶ cm/s.

A word on the pIC50: it is the negative decadic logarithm of the IC50, by convention in mol/L. In general, Papp refers to the rate of passage across a membrane or cell layer, normalised by area and donor concentration. Lower therefore signals poor permeation.
